Our source for the IC50 values is patent US11691992B2 (Anacor Pharmaceuticals, Inc., priority 2017, dated 2023).

What all share (format): cell-based
The test system of assay [1] is bloodstream-form trypanosome T. brucei brucei 427 strain. In words: Trypanosoma brucei brucei high-throughput screening assay (resazurin). (In general: Resazurin is reduced to fluorescent resorufin, in cell work by metabolically active cells.)
The test system of assay [2] is Trypanosoma brucei rhodesiense STIB 900 strain. In words: Trypanosoma brucei rhodesiense STIB 900 screening assay. As to conditions: 72 h. The essentials:
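Bloodstream forms of T. b. rhodesiense STIB 900 (10^4 per well) cultured with seven 3-fold drug dilutions (90 to 0.123 μg/mL) in MEM with 15% horse serum, 72 h, 37 °C, 5% CO2. Alamar Blue added for 2-4 h more; fluorescence read at ex 536/em 588 nm for IC50.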

The test system of assay [3] is L. infantum MHOM/MA(BE)/67 amastigotes in primary peritoneal mouse macrophages. The assay can be described thus: Leishmania infantum intracellular amastigote assay in mouse macrophages. As to conditions: Macrophage, 120 h. The essentials: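 Amastigotes harvested from infected hamster spleen infected primary peritoneal mouse macrophages (5×10^5 amastigotes/well, 2 h, 37 °C). Compounds then present 5 d at 37 °C, 5% CO2. Parasite burden counted by microscopy after Giemsa staining, as % of untreated controls; IC50 from sigmoidal variable-slope fit.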

The subject of assay [4] is bloodstream forms of T. b. rhodesiense STIB 900. The assay can be described thus: T. brucei rhodesiense STIB 900 growth inhibition assay. The conditions noted are these: Trypanosoma brucei, 72 h. The essentials:
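Bloodstream-form STIB 900 (10^4/well) were cultured in supplemented MEM with 15% horse serum and compound (90 to 0.123 μg/ml, 3-fold steps) for 72 h at 37 °C, 5% CO2. Viability was read by Alamar Blue fluorescence (ex 536/em 588 nm) after a further 2-4 h.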

The mark [5] stands for this setting: bloodstream form, 72 hrs incubation, resazurin, read-out: IC50: I Org. Growth T. brucei brucei SBRI 427, 3 d.
Where [6] appears, read: STIB 900 bloodstream forms, Alamar Blue, protocol of Example 114, read-out: Swiss TPH T b rhodesiense IC50.
Where [7] appears, read: amastigotes in primary peritoneal mouse macrophages, 5 d, Giemsa staining, read-out: Inhibition of Organism Growth in Leishmania infantum MHOM/MA/BE/67, 5 d.
Where [8] appears, read: bloodstream forms, Alamar Blue, protocol of Example 110, read-out: IC50: I Org. Growth T. brucei rhodesiense STIB 900, 3 d.
[9] abbreviates: read-out: IC50: I Org. Growth T. brucei rhodesiense STIB 900, 3 d [uM].
[10] abbreviates: 72 h, read-out: IC50: I Org. Growth T. brucei brucei SBRI 427, 3 d [uM].
Setting [11] is: read-out: Swiss TPH T b rhodesiense IC50.
Setting [12] is: read-out: Inhibition of Organism Growth in Leishmania infantum MHOM/MA/BE/67, 5 d [uM].

Where two headings read alike, the source gives them in different places.

In the case of `O=C(Nc1ccc2c(c1)B(O)OC2)c1cn(-c2ccc(F)cc2)nn1` [Example 60, 1-(4-Fluorophenyl)-N-(1-hydroxy-1,3-dihydrobenzo[c][1,2]oxaborol-6-yl)-1H-1,2,3-triazole-4-carboxamide], the IC50 in assay [1] (setting [5]) is 0.075 to 0.15 µM; in assay [2] (setting [6]), < 100 nM; in assay [3] (setting [7]), < 3 µM.
For `O=C(Nc1ccc2c(c1)B(O)OC2)c1cn(-c2ccccn2)nn1` [Example 61, N-(1-hydroxy-1,3-dihydrobenzo[c][1,2]oxaborol-6-yl)-1-(pyridin-2-yl)-1H-1,2,3-triazole-4-carboxamide], the IC50 was < 0.1 µM in assay [4] (setting [8]), < 0.075 µM in assay [1] (setting [5]), 100 to 250 nM in assay [2] (setting [6]) and < 3 µM in assay [3] (setting [7]).
As to `O=C(Nc1ccc2c(c1)B(O)OC2)c1nnn(-c2ccccc2F)c1C(F)(F)F` [Example 67, 1-(2-Fluorophenyl)-N-(1-hydroxy-1,3-dihydrobenzo[c][1,2]oxaborol-6-yl)-5-(trifluoromethyl)-1H-1,2,3-triazole-4-carboxamide], the IC50 in assay [4] (setting [8]) fell in the range of 0.1 to 0.3 µM; in assay [2] (setting [6]), 100 to 250 nM; in assay [3] (setting [7]), 20 to 100 µM.
`O=C(Nc1ccc2c(c1)B(O)OC2)c1nnn(-c2ccccc2)c1C(F)(F)F` [Example 68, N-(1-hydroxy-1,3-dihydrobenzo[c][1,2]oxaborol-6-yl)-1-phenyl-5-(trifluoromethyl)-1H-1,2,3-triazole-4-carboxamide]: the IC50 was < 0.1 µM in assay [4] (setting [9]), 0.151 to 10 µM in assay [1] (setting [10]), < 100 nM in assay [2] (setting [11]) and < 3 µM in assay [3] (setting [12]).
For `O=C(Nc1ccc2c(c1)B(O)OC2)c1nnn(-c2cccc(F)c2)c1C(F)(F)F` [Example 69, 1-(3-Fluorophenyl)-N-(1-hydroxy-1,3-dihydrobenzo[c][1,2]oxaborol-6-yl)-5-(trifluoromethyl)-1H-1,2,3-triazole-4-carboxamide], the IC50 in assay [4] (setting [8]) was 0.1 to 0.3 µM; in assay [2] (setting [6]), 100 to 250 nM; in assay [3] (setting [7]), < 3 µM.
`O=C(Nc1ccc2c(c1)B(O)OC2)c1nnn(-c2ccc(F)cc2)c1C(F)(F)F` [Example 70, 1-(4-Fluorophenyl)-N-(1-hydroxy-1,3-dihydrobenzo[c][1,2]oxaborol-6-yl)-5-(trifluoromethyl)-1H-1,2,3-triazole-4-carboxamide]: the results for the IC50 in assay [4] (setting [8]), in assay [2] (setting [6]) and in assay [3] (setting [7]) were 0.31 to 10 µM, 100 to 250 nM and < 3 µM, respectively.
Taken in the same sequence, the figures for `O=C(Nc1ccc2c(c1)B(O)OC2)c1nnn(-c2cccnc2)c1C(F)(F)F` [Example 71, N-(1-hydroxy-1,3-dihydrobenzo[c][1,2]oxaborol-6-yl)-1-(pyridin-3-yl)-5-(trifluoromethyl)-1H-1,2,3-triazole-4-carboxamide] were 0.1 to 0.3 µM, 100 to 250 nM and < 3 µM.
As for `Cc1c(C(=O)Nc2ccc3c(c2)B(O)OC3)nnn1-c1ccccn1` [Example 84, N-(1-hydroxy-1,3-dihydrobenzo[c][1,2]oxaborol-6-yl)-5-methyl-1-(pyridin-2-yl)-1H-1,2,3-triazole-4-carboxamide], the IC50 in assay [4] (setting [8]) is < 0.1 µM; in assay [1] (setting [5]), < 0.075 µM; in assay [3] (setting [7]) it was < 3 µM.
Regarding `Cc1c(C(=O)Nc2ccc3c(c2)B(O)OC3)nnn1-c1ccccc1` [Example 89, A-(1-hydroxy-1,3-dihydrobenzo[c][1,2]oxaborol-6-yl)-5-methyl-1-phenyl-1H-1,2,3-triazole-4-carboxamide], the IC50 in assay [4] (setting [9]) was < 0.1 µM; in assay [1] (setting [10]), < 0.075 µM; in assay [2] (setting [11]) it was < 100 nM; in assay [3] (setting [12]), 20 to 100 µM.
Consider `COc1ccc(-n2nnc(C(=O)Nc3ccc4c(c3)B(O)OC4)c2C)cc1` [Example 91, N-(1-hydroxy-1,3-dihydrobenzo[c][1,2]oxaborol-6-yl)-1-(4-methoxyphenyl)-5-methyl-1H-1,2,3-triazole-4-carboxamide], for which, in assay [1] (setting [5]), the IC50 was < 0.075 µM.
For `Cc1c(C(=O)Nc2ccc3c(c2)B(O)OC3)nnn1-c1cccnc1` [Example 93, N-(1-hydroxy-1,3-dihydrobenzo[c][1,2]oxaborol-6-yl)-5-methyl-1-(pyridin-3-yl)-1H-1,2,3-triazole-4-carboxamide], the IC50 in assay [4] (setting [8]) was in the range of 0.31 to 10 µM; in assay [2] (setting [6]), 260 to 2000 nM; in assay [3] (setting [7]) it was 20 to 100 µM.
